The results in this text go back to article PMC7321301, “Characteristics of New Peptides GQLGEHGGAGMG, GEHGGAGMGGGQFQPV, EQGFLPGPEESGR, RLARAGLAQ, YGNPVGGVGH, and GNPVGGVGHGTTGT as Inhibitors of Enzymes Involved in Metabolic Syndrome and Antimicrobial Potential” (Molecules, 2020).

Like-named read-outs stand apart in the source and are kept apart here. No end group written: not given here.

For one data set, the system named is HECa10 cells. As to the kind of experiment: MTT test. In kind it is cell-based, murine. The conditions noted are these: 24-h incubation, 0.1–100 µg/mL. The method, then:
The study was conducted according to the procedure described by Rokicki et al.. HECa10 cells after 80–90% confluence were trypsinized (3 min, 37 °C), centrifuged (300 g, 5 min), counted, and plated in 96-well plates at a concentration of 1 × 10^4 cells/well. Then, 24 h after seeding, cells were washed with phosphate-buffered saline (PBS) solution and culture medium (Dulbecco’s Modified Eagle Medium (DMEM) + 10% fetal bovine serum (FBS) + antibiotics, all from Life Technologies, Warsaw, Poland) was added with test factors in concentrations: 0.1; 1; 5; 10; 50; 100 µg/mL). Then, 24 h after addition of the compounds, proliferation tests (MTT, NR, LDH) were performed. The color intensity was determined using a Fluostar Omega microplate reader. Results are presented as the mean ± SD of 3 independent experiments (n = 12).
Briefly, the cells were seeded in a 96-well culture plate at a concentration of 1 × 10^4 cells/well. Then, 24 h after seeding, the cells were rinsed twice with PBS (Life Technologies, Warsaw, Poland) and resuspended in fresh growth medium. Peptide fractions were added at concentrations of 0 (control), 0.1, 1, 5, 10, 50, and 100 µg/mL. After 24 h incubation with the proteins, the assessment of cell metabolic activity based on MTT tests was performed (MTT kit, Sigma Aldrich, Poznań, Poland). The absorbance was measured at 570 nm with a FLUOstar Omega reader (BMG Labtech GmbH, Ortenberg, Germany). The results are presented as the percentage of the control values (mean ± SD). Each assay was performed in triplicate (n = 18).

The next data set addresses LOX (Glycine max, UniProt P08170). In kind it is biochemical. The conditions noted are these: read-out: IC50 LOX. As to the method:
(§1) For all inhibitory activity, IC50 was calculated. The IC50 value defined as the concentration of the extract inhibiting 50% of the enzyme activity was determined by measuring the enzyme inhibitory activity and peptide contents in each sample. The IC50 value was calculated from the plotted graph of the inhibition activity for the five different peptide concentrations.
The LOX inhibitory assay was carried out with the method described by Szymanowska et al.. A solution of pure linoleic acid was used as a substrate. First, 157.2 µl of pure linoleic acid was mixed with 157.2 µL of Tween-20 and 10 mL of deionized water. The substrate was clarified with 1 mL of 1 M NaOH and M/15 phosphate buffer pH = 7.0 was added to the volume of 200 mL. The enzymatic reaction mixture contained 297 µL of M/15 phosphate buffer pH = 7, 2 µl of the substrate solution, and 1 µL of the enzyme solution. A mixture of 298 µl of phosphate buffer (pH 7.0) and 2 µL of the substrate solution was used to calibrate the spectrophotometer. Changes in absorbance at 234 nm were measured using BioTek Microplate Readers.
(§2) Substrate solutions (5.0, 10.0, 15.0, and 20.0 mM) were prepared and used to determine the Michaelis constant (Km), the inhibition constant (Ki), and the maximum velocity (Vmax) of enzymes. The kinetic parameters were evaluated by Lineweaver–Burk’s method. The reaction conditions were the same as in the enzyme inhibitory activity assay.

The next data set deals with T1, pancreatic lipase (Homo sapiens, UniProt P16233).
T1 sequence (P16233 17-465): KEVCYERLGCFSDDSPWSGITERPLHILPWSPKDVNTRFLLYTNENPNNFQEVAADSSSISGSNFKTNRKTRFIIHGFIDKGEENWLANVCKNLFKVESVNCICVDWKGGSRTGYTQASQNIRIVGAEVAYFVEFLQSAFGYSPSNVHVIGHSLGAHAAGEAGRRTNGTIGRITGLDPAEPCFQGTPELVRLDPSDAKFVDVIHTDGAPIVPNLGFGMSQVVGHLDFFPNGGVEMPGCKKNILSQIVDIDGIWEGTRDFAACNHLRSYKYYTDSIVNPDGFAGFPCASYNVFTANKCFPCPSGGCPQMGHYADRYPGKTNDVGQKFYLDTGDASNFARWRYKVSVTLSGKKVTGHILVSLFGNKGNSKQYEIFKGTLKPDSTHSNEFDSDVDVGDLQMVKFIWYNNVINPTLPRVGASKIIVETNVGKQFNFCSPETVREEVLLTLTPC
The experiment in a line: Pancreatic lipase inhibitory activity (pNPA) and kinetics. The conditions noted are these: mean ± SD, triplicate. In kind it is biochemical. The method, then: as §1
Lipase inhibitory activity was determined with the method described by Jakubczyk et al.. The final volume of the reaction mixture was 150 μL (2 μL of the enzyme, 5 μL of the sample, 142 μL of 100 mM potassium phosphate buffer, pH 7.5, and 1 μL of a 100 mM p-nitrophenyl acetate (pNPA) solution in dimethyl sulfoxide (DMSO). Changes in absorbance at […] were measured using BioTek Microplate Readers.
as §2

The next data set has as its target T2, COX-2 (Homo sapiens, UniProt P35354).
T2 construct: purchased Cayman Chemical 760151
T2 sequence (P35354 18-604): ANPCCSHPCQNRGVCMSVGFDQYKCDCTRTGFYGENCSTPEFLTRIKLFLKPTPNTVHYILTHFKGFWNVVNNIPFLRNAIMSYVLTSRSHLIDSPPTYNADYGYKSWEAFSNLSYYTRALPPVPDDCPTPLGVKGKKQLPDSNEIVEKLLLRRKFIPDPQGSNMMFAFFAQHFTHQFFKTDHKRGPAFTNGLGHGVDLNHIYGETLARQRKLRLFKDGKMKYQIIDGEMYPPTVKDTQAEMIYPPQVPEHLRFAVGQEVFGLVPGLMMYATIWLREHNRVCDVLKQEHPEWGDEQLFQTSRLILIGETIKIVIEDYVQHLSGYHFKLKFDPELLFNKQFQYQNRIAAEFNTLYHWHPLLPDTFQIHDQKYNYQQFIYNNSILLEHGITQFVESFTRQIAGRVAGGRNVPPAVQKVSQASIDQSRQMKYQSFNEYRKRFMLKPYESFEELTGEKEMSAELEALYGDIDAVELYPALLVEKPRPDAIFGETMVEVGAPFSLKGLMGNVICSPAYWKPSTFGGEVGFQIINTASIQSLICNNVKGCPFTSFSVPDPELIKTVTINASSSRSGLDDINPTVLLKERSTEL
As to the kind of experiment: COX-2 inhibitory activity (COX Activity Assay kit) and kinetics. In kind it is biochemical. The conditions noted are these: mean ± SD, triplicate. As to the method: as §1
The effect of the peptide on COX-1 and COX-2 was measured using the COX Activity Assay kit from Cayman Chemical (Item No. 760151, Ann Arbor, MI, USA). COX activity was determined according to the instructions provided with the kit. The enzyme activity was assayed by calorimetric measurement of the appearance of oxidized N,N,N′,N′-Tetramethyl-p-phenylenediamine (TMPD) at 590 nm using BioTek Microplate Readers (Epoch™ 2 BioTek, Bad Friedrichshall, Germany).
as §2

Sequence of LOX (P08170 whole entry): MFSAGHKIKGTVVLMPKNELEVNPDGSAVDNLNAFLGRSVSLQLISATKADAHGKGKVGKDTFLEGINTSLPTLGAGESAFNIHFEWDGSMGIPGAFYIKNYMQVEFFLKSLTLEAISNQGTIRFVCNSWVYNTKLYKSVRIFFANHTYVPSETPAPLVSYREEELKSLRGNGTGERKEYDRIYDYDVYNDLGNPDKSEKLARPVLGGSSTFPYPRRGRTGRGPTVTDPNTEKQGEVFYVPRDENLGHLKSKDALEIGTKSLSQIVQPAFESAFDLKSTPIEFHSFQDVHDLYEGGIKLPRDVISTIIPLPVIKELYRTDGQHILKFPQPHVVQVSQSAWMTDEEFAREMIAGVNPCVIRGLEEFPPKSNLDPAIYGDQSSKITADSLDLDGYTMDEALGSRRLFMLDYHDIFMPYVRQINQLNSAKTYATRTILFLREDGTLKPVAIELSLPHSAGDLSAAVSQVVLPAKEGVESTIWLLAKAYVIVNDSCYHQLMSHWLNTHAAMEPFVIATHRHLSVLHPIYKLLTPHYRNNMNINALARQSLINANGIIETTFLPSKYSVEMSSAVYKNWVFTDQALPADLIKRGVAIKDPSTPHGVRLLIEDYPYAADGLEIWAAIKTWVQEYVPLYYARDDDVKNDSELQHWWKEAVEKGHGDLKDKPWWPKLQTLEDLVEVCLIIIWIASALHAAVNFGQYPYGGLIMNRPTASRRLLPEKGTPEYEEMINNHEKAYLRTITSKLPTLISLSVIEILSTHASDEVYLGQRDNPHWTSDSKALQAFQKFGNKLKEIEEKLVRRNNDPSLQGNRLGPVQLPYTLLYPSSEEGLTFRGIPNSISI

Take EQGFLPGPEESGR [ER-13, EQGFLPGPEESGR]: the “MTT test, HECa10 cell count compared to control” value (“MTT test … compared to control” below) in the data set on HECa10 cells is recorded as “no statistically significant differences”. In addition, the IC50 (as a rule, the midpoint of a concentration-inhibition curve) was 60.1 µM at LOX, 54.8 µM against pancreatic lipase and 3.07 µM against COX-2.

Consider “GEHGGAGMGGGQFQPV [GV-16, GEHGGAGMGGGQFQPV]”, for which the “MTT test … compared to control” value in the data set on HECa10 cells was “no statistically significant differences”. Further, the IC50 on LOX was 68.5 µM; at pancreatic lipase it was 41.9 µM; against COX-2, 30.2 µM.

Regarding GNPVGGVGHGTTGT [GT-14, GNPVGGVGHGTTGT], the “MTT test … compared to control” value with HECa10 cells was “no statistically significant differences”. Moreover, the IC50 at LOX was 153 µM; against pancreatic lipase it was 86.1 µM; on COX-2, 3.66 µM.

Consider GQLGEHGGAGMG [GG-12, GQLGEHGGAGMG], for which the “MTT test … compared to control” value in the data set with HECa10 cells is “no statistically significant differences”. Besides, the IC50 on LOX was 131 µM; against pancreatic lipase it was 56.6 µM; against COX-2, 15.7 µM.

RLARAGLAQ [RQ-9, RLARAGLAQ]: the “MTT test … compared to control” value with HECa10 cells is “no statistically significant differences”. Also, the IC50 on LOX (mean ± SD, triplicate) was 205 µM; against pancreatic lipase, 102 µM; against COX-2 it was 4.99 µM.

Turning to YGNPVGGVGH [YH-10, YGNPVGGVGH], in the data set with HECa10 cells, the “MTT test … compared to control” value was “declined statistically significantly”. Also, the IC50 was 127 µM on LOX, 107 µM against pancreatic lipase and 16.2 µM at COX-2.
